Test results: ChEMBL document CHEMBL4184269, “Novel aromatic sulfonyl naphthalene-based boronates as 20S proteasome inhibitors” (Bioorg Med Chem, 2018)

Legend:
[1] = target: T1, Proteasome Macropain subunit MB1 (Homo sapiens) (UniProt P28074); test: Inhibition of chymotrypsin-like activity of human 20S proteasome at 100 nM using Suc-Leu-Leu-Val-Tyr-AMC as substrate by fluorescence assay relative to control
T1 sequence (whole entry): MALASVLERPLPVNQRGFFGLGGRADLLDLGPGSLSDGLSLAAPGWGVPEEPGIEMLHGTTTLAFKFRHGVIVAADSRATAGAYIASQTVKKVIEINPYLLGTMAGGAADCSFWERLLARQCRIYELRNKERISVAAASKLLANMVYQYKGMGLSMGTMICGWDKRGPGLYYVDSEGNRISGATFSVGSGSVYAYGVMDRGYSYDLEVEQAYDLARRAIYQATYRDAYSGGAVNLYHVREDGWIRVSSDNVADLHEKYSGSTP

[2] = tested on: MCF7; test: Antiproliferative activity against human MCF7 cells after 72 hrs by SRB assay; type: functional, cell-based
[3] = tested on: MDA-MB-231; test: Antiproliferative activity against human MDA-MB-231 cells after 72 hrs by SRB assay; type: functional, cell-based
[4] = Metabolic stability in Sprague-Dawley rat liver microsomes assessed as parent compound remaining at […] preincubated for 5 mins followed by NADPH addition measured after 40 mins by HPLC analysis; type: ADME, microsome; conditions: read-out: Stability
[5] = tested on: A549; test: Antiproliferative activity against human A549 cells after 72 hrs by SRB assay; type: functional, cell-based
[6] = target: T1, Proteasome Macropain subunit MB1 (Homo sapiens); test: Inhibition of chymotrypsin-like activity of human 20S proteasome at 10 nM using Suc-Leu-Leu-Val-Tyr-AMC as substrate by fluorescence assay relative to control

Row | SMILES | inhibition [1] [%] | IC50 ([2]; Homo sapiens, MCF7, 72 h) [µM] | IC50 ([3]; Homo sapiens, MDA-MB-231, 72 h) [µM] | also measured
1 | CC(C)C[C@H](NC(=O)C(C)Sc1cc(NS(=O)(=O)c2ccccc2)c2ccccc2c1O)B(O)O (stereo in doubt; 3b) [listing 1 of 2 here] | 22.6 |  |  | 
2 | CC(=O)Nc1ccc(S(=O)(=O)Nc2cc(SCCC(=O)N[C@@H](CC(C)C)B(O)O)c(O)c3ccccc23)cc1 | 38.4 | 6.62 | 2.12 | 
3 | C[S+](C)[O-] | 4.89 |  |  | 
4 | CC(C)C[C@H](NC(=O)CCSc1cc(NS(=O)(=O)c2cccs2)c2ccccc2c1O)B(O)O | 38.3 | 6.47 | 4.45 | 
5 | Cc1ccc(S(=O)(=O)Nc2cc(SCCC(=O)N[C@@H](CC(C)C)B(O)O)c(O)c3ccccc23)cc1 | 54.2 | 6.94 | 6.15 | remaining at 40 min [4]: 56%
6 | CC(C)C[C@H](NC(=O)C(C)Sc1cc(NS(=O)(=O)c2ccc(Cl)cc2)c2ccccc2c1O)B(O)O (stereo in doubt; 3c-1) [listing 2 of 2 here] |  |  |  | IC50 ([2]; mcf7): 10.7 µM; IC50 ([3]; mda-mb-231): 6.46 µM
7 | CC(C)C[C@H](NC(=O)CSc1cc(NS(=O)(=O)c2cccs2)c2ccccc2c1O)B(O)O | 33.3 | 9.45 | 6.52 | 
8 | CC(C)C[C@H](NC(=O)CCSc1cc(NS(=O)(=O)c2ccc(Cl)cc2)c2ccccc2c1O)B(O)O | 52.5 | 6.91 | 4.09 | 
9 | CC(C)C[C@H](NC(=O)CCSc1cc(NS(=O)(=O)c2ccccc2)c2ccccc2c1O)B(O)O | 45.6 | 7.46 | 4.2 | 
10 | Cc1ccc(S(=O)(=O)Nc2cc(SCC(=O)N[C@@H](CC(C)C)B(O)O)c(O)c3ccccc23)cc1 | 36.6 | 12.8 | 14 | 
11 | CC(C)C[C@H](NC(=O)[C@H](Cc1ccccc1)NC(=O)c1cnccn1)B(O)O [BORTEZOMIB] |  | 18.4 | 3.12 | inhibition [6]: 51.2%; remaining at 40 min [4]: 30%
12 | CC(=O)Nc1ccc(S(=O)(=O)Nc2cc(SCC(=O)N[C@@H](CC(C)C)B(O)O)c(O)c3ccccc23)cc1 | 40.8 | 8.66 | 4.45 | 
13 | CC(C)C[C@H](NC(=O)CSc1cc(NS(=O)(=O)c2ccccc2)c2ccccc2c1O)B(O)O | 32.5 | 4.16 | 10.6 | 
14 | O=C(O)CSc1cc(NS(=O)(=O)c2cccs2)c2ccccc2c1O | 6.86 |  |  | 
15 | CC(C)C[C@H](NC(=O)C(C)Sc1cc(NS(=O)(=O)c2cccs2)c2ccccc2c1O)B(O)O (stereo not given in full) | 41.1 | 14.7 | 7.45 | 
16 | CC(C)C[C@H](NC(=O)C(C)Sc1cc(NS(=O)(=O)c2ccccc2)c2ccccc2c1O)B(O)O (stereo in doubt; 3b-1) [listing 1 of 2 here] |  |  |  | IC50 ([2]; mcf7): 11.3 µM; IC50 ([3]; mda-mb-231): 5.11 µM

More lines, main results first:

Row | inhibition [1] [%] | IC50 ([2]; Homo sapiens, MCF7, 72 h) [µM] | IC50 ([3]; Homo sapiens, MDA-MB-231, 72 h) [µM] | SMILES | also measured
17 | 35.5 | 8.61 | 8.13 | Cc1ccc(S(=O)(=O)Nc2cc(SC(C)C(=O)N[C@@H](CC(C)C)B(O)O)c(O)c3ccccc23)cc1 (stereo not given in full) | 
18 | 39.4 |  |  | CC(C)C[C@H](NC(=O)C(C)Sc1cc(NS(=O)(=O)c2ccc(Cl)cc2)c2ccccc2c1O)B(O)O (stereo in doubt; 3c-1) [listing 1 of 2 here] | 
19 | 27.4 | 8.91 | 2.8 | CC(=O)Nc1ccc(S(=O)(=O)Nc2cc(SC(C)C(=O)N[C@@H](CC(C)C)B(O)O)c(O)c3ccccc23)cc1 (stereo not given in full) | 
20 |  | 16.5 |  | CC(C)C[C@H](NC(=O)C(C)Sc1cc(NS(=O)(=O)c2ccccc2)c2ccccc2c1O)B(O)O (stereo in doubt; 3b) [listing 2 of 2 here] | IC50 [5]: 4.48 µM; IC50 ([3]; mda-mb-231): 11.1 µM
21 |  | 10.1 | 6.15 | CC(C)C[C@H](NC(=O)C(C)Sc1cc(NS(=O)(=O)c2ccc(Cl)cc2)c2ccccc2c1O)B(O)O (stereo in doubt; 3c) [listing 1 of 2 here] | IC50 [5]: 16.5 µM
22 | 45.1 | 10.4 | 6.19 | CC(C)C[C@H](NC(=O)CSc1cc(NS(=O)(=O)c2ccc(Cl)cc2)c2ccccc2c1O)B(O)O | 
23 | 41.5 |  |  | CC(C)C[C@H](NC(=O)C(C)Sc1cc(NS(=O)(=O)c2ccc(Cl)cc2)c2ccccc2c1O)B(O)O (stereo in doubt; 3c) [listing 2 of 2 here] | 
24 | 25.4 |  |  | CC(C)C[C@H](NC(=O)C(C)Sc1cc(NS(=O)(=O)c2ccccc2)c2ccccc2c1O)B(O)O (stereo in doubt; 3b-1) [listing 2 of 2 here] | 
